According to patent US20240391931A1 (Bristol-Myers Squibb Company, priority 2021, published 2024):

Experiments:
[1] = target: T1, HER2 wildtype (WT) protein (Homo sapiens, UniProt P04626); assay: HER2 signaling (pHER2 Tyr1248/total HER2 MSD) in N87 cells; assay type: cell-based; settings: 1.5 hr compound, 1% FBS
T1 construct: BT474 and N87 cell lines which endogenously overexpress the HER2 wildtype (WT) protein; endogenous in cells; host or cells: BT474, N87
Protocol: (§1) In addition to the engineered cell lines, the following cell lines were used: BT474 (human breast carcinoma), N87 (human gastric carcinoma), NCI-H1781 (human lung adenocarcinoma), and A431 (human epidermoid carcinoma); all cell lines were obtained from the American Type Culture Collection (ATCC, Manassas, VA). NCI-H1781 were grown in complete RPMI 1640 (Life Technologies, Carlsbad, CA) supplemented with 15% fetal bovine serum (FBS, Life Technologies, Carlsbad, CA) and 1% Penicillin-Streptomycin (P/S, Life Technologies, Carlsbad, CA). N87 cells were grown in complete RPMI 1640 supplemented with 10% FBS and 1% P/S. BT474 and A431 cells were grown in DMEM (Life Technologies, Carlsbad, CA) supplemented with 10% FBS and 1% P/S. All cells were maintained and propagated in a humidified 5% CO2 incubator at 37° C.
(§2) HER2 signaling was assessed in BT474 and N87 cell lines which endogenously overexpress the HER2 wildtype (WT) protein, in NCI-H1781 cells which endogenously expresses a HER2 mutant protein containing a VC insertion in the kinase domain (HER2VC or G776delinsVC), and in engineered cell lines transduced to express the Her2 mutant protein containing the YVMA insertion (Hek293-HER2YVMA and BEAS2B-HER2YVMA).
(§3) BT474, N87, and NCI-H1781 were plated in 96-well tissue-culture treated plates (Corning Costar, Sigma-Aldrich) in full media and incubated overnight. Hek293-HER2YVMA and BEAS2B-HER2YVMA cells were plated in 96-well poly-D-lysine treated plates (BD Bioscience, San Jose, CA). For treatment with test compounds, the media was replaced with corresponding low serum media (1% FBS) containing test compound at 1.1, 0.37, 0.12, 0.041, 0.014, 0.005, 0.0014, 0.0005 μM or DMSO control (0.1%). Cells were incubated with compound for 1.5 hr at 37° C. After compound treatment, the media was removed and cells were lysed for 30 min on ice in complete MSD lysis buffer (prepared using MSD base lysis buffer (Meso-Scale Discovery) supplemented with cOmplete, EDTA-free Protease inhibitor cocktail (Roche), Phosphatase Inhibitor Cocktails 2 and 3 (Sigma-Aldrich), and 1 mM PMSF (Sigma-Aldrich)). Lysates were stored at −70° C. until further analysis.
(§4) HER2 signaling was evaluated using phospho (Tyr1248)/total ErbB2 whole cell lysate MSD plates (Meso-Scale Discovery, Gaithersburg, MD). The phospho HER2 signal was normalized to total HER2 for each sample; results are reported as % DMSO control. The normalized data was fitted using a sigmoidal curve analysis program (Graph Pad Prism version 6) with variable Hill slope to determine EC50 values.
(§5) The HER2 signaling results are provided in Table 4, under columns titled “BT474-pHER2 EC50”, “N87-pHER2 EC50”, and “NCI-H1781-pHER2 EC50”. Hek293-HER2YVMA ins fall under the heading “HEKYVMA-pHER2 EC50”, Ba/F3 HER2YVMA fall under the heading “Ba/F3 YVMA-pHER2 EC50” and BEAS2B-HER2YVMA fall under the heading “BEAS2B YVMA-pHER2 EC50”.

HER2VC (G776delinsVC) = target: T2, HER2VC (G776delinsVC) (Homo sapiens, UniProt P04626, G776C/INS775V); assay: HER2 signaling (pHER2) in NCI-H1781 cells; assay type: cell-based; settings: 1.5 hr compound, 1% FBS
T2 construct: NCI-H1781 cells which endogenously expresses a HER2 mutant protein; endogenous in cells; host or cells: NCI-H1781
T2 sequence (P04626 with tags, fused parts or gaps INS775V/G776C): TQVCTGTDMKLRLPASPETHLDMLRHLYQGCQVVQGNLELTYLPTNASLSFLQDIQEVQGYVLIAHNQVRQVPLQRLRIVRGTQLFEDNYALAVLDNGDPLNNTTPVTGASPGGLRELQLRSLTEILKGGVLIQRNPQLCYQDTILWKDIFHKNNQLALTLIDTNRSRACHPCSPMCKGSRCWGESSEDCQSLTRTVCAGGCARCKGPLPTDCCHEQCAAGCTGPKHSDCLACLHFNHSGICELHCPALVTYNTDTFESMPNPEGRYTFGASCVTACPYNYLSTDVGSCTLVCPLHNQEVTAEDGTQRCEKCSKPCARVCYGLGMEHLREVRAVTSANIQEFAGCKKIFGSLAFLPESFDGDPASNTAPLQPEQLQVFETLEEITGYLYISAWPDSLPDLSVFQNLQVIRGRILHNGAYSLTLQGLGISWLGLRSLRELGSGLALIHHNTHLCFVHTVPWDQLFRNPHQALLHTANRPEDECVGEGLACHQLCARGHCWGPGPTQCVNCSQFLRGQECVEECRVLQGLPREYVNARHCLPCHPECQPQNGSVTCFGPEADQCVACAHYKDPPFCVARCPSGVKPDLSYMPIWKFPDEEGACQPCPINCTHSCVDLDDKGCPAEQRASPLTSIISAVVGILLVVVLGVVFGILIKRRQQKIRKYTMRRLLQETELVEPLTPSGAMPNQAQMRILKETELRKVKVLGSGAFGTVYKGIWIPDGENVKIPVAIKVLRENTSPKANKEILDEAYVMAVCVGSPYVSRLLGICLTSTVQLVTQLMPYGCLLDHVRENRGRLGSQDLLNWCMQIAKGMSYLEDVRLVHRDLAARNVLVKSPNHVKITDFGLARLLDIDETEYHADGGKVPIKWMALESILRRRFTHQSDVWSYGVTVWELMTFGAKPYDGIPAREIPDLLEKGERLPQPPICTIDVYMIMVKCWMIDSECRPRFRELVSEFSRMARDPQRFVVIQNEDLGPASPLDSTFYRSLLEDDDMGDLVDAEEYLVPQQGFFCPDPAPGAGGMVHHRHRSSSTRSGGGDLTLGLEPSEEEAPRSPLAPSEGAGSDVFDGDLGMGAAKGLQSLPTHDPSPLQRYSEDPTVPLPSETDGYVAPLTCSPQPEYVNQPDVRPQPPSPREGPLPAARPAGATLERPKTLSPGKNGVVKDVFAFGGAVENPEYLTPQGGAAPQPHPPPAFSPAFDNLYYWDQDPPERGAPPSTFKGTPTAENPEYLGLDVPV
Protocol: as §1, §2, §3, §4, §5

N87 cells = assay: Cellular proliferation in N87 cells (CellTiter Glo); assay type: cell-based, human; settings: 72 h
Protocol: as §1
(§6) Cell proliferation in adherent cells was investigated in two HER2 amplified cell lines (BT474, N87), and a HER2VC expressing cell line (NCI-H1781). BT474, NCI-H1781, and N87 were plated in their appropriate growth media supplemented with either 10% FBS (BT474, N87) or 15% FBS (NCI-H1781) and 1% P/S in 96-well white clear-bottom tissue culture plates (Costar, Sigma-Aldrich). The starting cell densities were 3500, 5500, and 5000 cells for BT474, NCI-H1781, and N87 cells, respectively. An 8-point standard curve with varying cell densities (starting at 50000 cells and serially diluting down 2-fold) was prepared for each cell line and read 6 h after plating. Cells were allowed to attach overnight prior to compound treatment. Compound solutions were prepared by serially diluting test compounds in DMSO (Sigma-Aldrich), then diluting 500× in their corresponding serum free media. Cells were treated by adding a 1:1 volume of test compound to a final concentration of […], 0.004, 0.0014, or 0.0005 μM, in 0.1% DMSO and 5% FBS (for BT474 and N87) or 7.5% FBS (NCI-H1781). In BT474 and NCI-H1781, cell media was replaced and cells were redosed with fresh test compound solutions after 72 h. Viability was determined by CellTiter Glo (Promega, Madison, WI) after 72 h for N87 cells, and after 120 h for BT474 and […] cells. The results were converted to cell numbers using a standard curve; growth inhibition (GI50 values) were determined by Graph Pad Prism. […] The results are provided in Table 4, under columns titled “BT474-GI50”, “N87-GI50”, and “NCI-H1781-GI50”.

NCI-H1781 cells = assay: Cellular proliferation in NCI-H1781 cells (CellTiter Glo); assay type: cell-based, human; settings: 120 h, redosed after 72 h
Protocol: as §1, §6

BT474 cells = assay: Cellular proliferation in BT474 cells (CellTiter Glo); assay type: cell-based, human; settings: 120 h, redosed after 72 h
Protocol: as §1, §6

[2] = Homo sapiens, NCI-H1781, NCI-H1781 cells
[3] = Homo sapiens, BT-474, BT474 cells

T1 sequence (P04626 23-1255): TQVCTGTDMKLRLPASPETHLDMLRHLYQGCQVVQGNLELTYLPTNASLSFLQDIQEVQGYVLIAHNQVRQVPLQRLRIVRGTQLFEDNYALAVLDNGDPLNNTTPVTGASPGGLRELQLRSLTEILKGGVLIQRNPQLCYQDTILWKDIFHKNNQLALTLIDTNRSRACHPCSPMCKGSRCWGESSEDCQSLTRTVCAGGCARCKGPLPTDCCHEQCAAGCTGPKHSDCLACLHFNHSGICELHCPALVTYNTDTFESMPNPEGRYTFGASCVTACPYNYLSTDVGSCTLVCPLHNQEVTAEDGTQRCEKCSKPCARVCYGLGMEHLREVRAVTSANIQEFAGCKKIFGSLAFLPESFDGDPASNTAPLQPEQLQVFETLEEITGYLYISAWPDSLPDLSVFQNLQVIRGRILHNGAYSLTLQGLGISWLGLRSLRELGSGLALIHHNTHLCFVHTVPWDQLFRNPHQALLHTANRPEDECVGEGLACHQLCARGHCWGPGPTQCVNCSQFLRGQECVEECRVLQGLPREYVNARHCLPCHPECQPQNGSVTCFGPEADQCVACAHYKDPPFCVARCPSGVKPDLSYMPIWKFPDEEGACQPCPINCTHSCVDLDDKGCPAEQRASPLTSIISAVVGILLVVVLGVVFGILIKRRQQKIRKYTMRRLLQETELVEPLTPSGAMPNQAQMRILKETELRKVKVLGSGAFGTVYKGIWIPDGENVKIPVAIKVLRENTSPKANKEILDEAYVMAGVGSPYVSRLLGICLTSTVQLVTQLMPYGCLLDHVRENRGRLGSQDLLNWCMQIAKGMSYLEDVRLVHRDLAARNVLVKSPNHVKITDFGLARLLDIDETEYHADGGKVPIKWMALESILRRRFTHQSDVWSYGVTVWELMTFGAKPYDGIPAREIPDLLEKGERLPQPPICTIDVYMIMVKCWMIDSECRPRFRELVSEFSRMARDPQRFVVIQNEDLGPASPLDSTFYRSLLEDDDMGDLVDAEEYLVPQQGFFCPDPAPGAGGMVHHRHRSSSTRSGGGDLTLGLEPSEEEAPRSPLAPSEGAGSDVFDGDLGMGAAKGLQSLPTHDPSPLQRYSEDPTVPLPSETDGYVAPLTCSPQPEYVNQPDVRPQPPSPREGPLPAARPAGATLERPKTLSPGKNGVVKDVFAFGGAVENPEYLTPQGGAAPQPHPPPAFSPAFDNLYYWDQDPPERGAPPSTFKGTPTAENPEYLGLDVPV

CN(C)C/C=C/C(=O)N1CCc2c(sc3ncnc(Nc4ccc(Oc5ccc6ncnn6c5)c(Cl)c4)c23)C1 [Compound 5, (E)-1-(4-((4-([1,2,4]triazolo[1,5-a]pyridin-6-yloxy)-3-chlorophenyl)amino)-5,8-dihydropyrido[4′,3′:4,5]thieno[2,3-d]pyrimidin-7(6H)-yl)-4-(dimethylamino)but-2-en-1-one]
< 100 nM: EC50 [1] | EC50 (HER2VC (G776delinsVC))

Cc1ccc(Oc2ccc(Nc3ncnc4sc5c(c34)CCN(C(=O)/C=C/CN(C)C(C)(C)C)C5)cc2C)cn1 [Compound 33]
< 100 nM: EC50 [1] | GI50 (N87 cells; Homo sapiens) | GI50 (NCI-H1781 cells; [2]) | GI50 (BT474 cells; [3]) | EC50 (HER2VC (G776delinsVC))

Cc1ccc(Oc2ccc(Nc3ncnc4sc5c(c34)CN(C(=O)/C=C/CN(C)C)C5)cc2C)cn1 [Compound 99, (E)-4-(dimethylamino)-1-(4-((3-methyl-4-((6-methylpyridin-3-yl)oxy)phenyl)amino)-5,7-dihydro-6H-pyrrolo[3′,4′:4,5]thieno[2,3-d]pyrimidin-6-yl)but-2-en-1-one]
< 100 nM: GI50 (N87 cells; Homo sapiens) | GI50 (NCI-H1781 cells; [2]) | GI50 (BT474 cells; [3])

Cc1ccc(Oc2ccc(Nc3ncnc4sc5c(c34)C(C)CN(C(=O)C=CCN(C)C)C5)cc2C)cn1 (single isomer, unassigned) [Compound 106]
< 100 nM: EC50 [1] | GI50 (N87 cells) | GI50 (NCI-H1781 cells; NCI-H1781 cells) | GI50 (BT474 cells; BT474 cells) | EC50 (HER2VC (G776delinsVC))

Cc1ccc(Oc2ccc(Nc3ncnc4sc5c(c34)CCN(C(=O)/C=C/CN3CCCOCC3)C5)cc2C)cn1 [Compound 42]
< 100 nM: GI50 (N87 cells; Homo sapiens) | GI50 (NCI-H1781 cells; [2]) | GI50 (BT474 cells; [3])

Cc1cc(Nc2ncnc3sc4c(c23)CCN(C(=O)/C=C/CN(C)C)C4)ccc1Oc1ccc2ncnn2c1 [Compound 3, (E)-1-(4-((4-([1,2,4]triazolo[1,5-a]pyridin-6-yloxy)-3-methylphenyl)amino)-5,8-dihydropyrido[4′,3′:4,5]thieno[2,3-d]pyrimidin-7(6H)-yl)-4-(dimethylamino)but-2-en-1-one]
< 100 nM: EC50 (HER2VC (G776delinsVC))

C=CC(=O)N1CCc2c(sc3ncnc(Nc4ccc(Oc5ccc6ncnn6c5)c(Cl)c4)c23)C1 [Compound 4, 1-(4-((4-([1,2,4]triazolo[1,5-a]pyridin-6-yloxy)-3-chlorophenyl)amino)-5,8-dihydropyrido[4′,3′:4,5]thieno[2,3-d]pyrimidin-7(6H)-yl)prop-2-en-1-one]
< 100 nM: EC50 (HER2VC (G776delinsVC))

Cc1ccc(Oc2ccc(Nc3ncnc4sc5c(c34)CCN(C(=O)/C=C/CN3CC4C(CO)C4C3)C5)cc2C)cn1 (centres unmarked) [Compound 34]
< 100 nM: EC50 [1] | GI50 (N87 cells; Homo sapiens) | GI50 (NCI-H1781 cells; [2]) | GI50 (BT474 cells; [3]) | EC50 (HER2VC (G776delinsVC))

COc1ccc(Oc2ccc(Nc3ncnc4sc5c(c34)CCN(C(=O)/C=C/CN(C)C)C5)cc2C)cn1 [Compound 95, (E)-4-(Dimethylamino)-1-(4-((4-((6-methoxypyridin-3-yl)oxy)-3-methylphenyl)amino)-5,6-dihydropyrido[4′,3′:4,5]thieno[2,3-d]pyrimidin-7(8H)-yl)but-2-en-1-one]
< 100 nM: EC50 [1] | GI50 (N87 cells; Homo sapiens) | GI50 (NCI-H1781 cells; [2]) | GI50 (BT474 cells; [3]) | EC50 (HER2VC (G776delinsVC))

Cc1ccc(Oc2ccc(Nc3ncnc4sc5c(c34)C(C)CN(C(=O)C=CCN(C)C)C5)cc2C)cn1 (single isomer, unassigned) [Compound 105]
< 100 nM: EC50 [1] | GI50 (N87 cells; Homo sapiens) | GI50 (NCI-H1781 cells; [2]) | GI50 (BT474 cells; [3]) | EC50 (HER2VC (G776delinsVC))

Cc1ccc(Oc2ccc(Nc3ncnc4sc5c(c34)C(C)CN(C(=O)/C=C/CN(C)C)C5)cc2C)cn1 (centres unmarked) [Compound 98, (E)-4-(dimethylamino)-1-(5-methyl-4-((3-methyl-4-((6-methylpyridin-3-yl)oxy)phenyl)amino)-5,8-dihydropyrido[4′,3′:4,5]thieno[2,3-d]pyrimidin-7(6H)-yl)but-2-en-1-one]
< 100 nM: GI50 (N87 cells; Homo sapiens) | GI50 (NCI-H1781 cells; [2]) | GI50 (BT474 cells; [3]) | EC50 (HER2VC (G776delinsVC))

Cc1ccc(Oc2ccc(Nc3ncnc4sc5c(c34)CCN(C(=O)/C=C/CN(C)C)CC5)cc2C)cn1 [Compound 100, (E)-4-(dimethylamino)-1-(4-((3-methyl-4-((6-methylpyridin-3-yl)oxy)phenyl)amino)-8,9-dihydro-5H-pyrimido[5′,4′:4,5]thieno[2,3-d]azepin-7(6H)-yl)but-2-en-1-one]
< 100 nM: EC50 [1] | GI50 (N87 cells; Homo sapiens) | GI50 (NCI-H1781 cells; [2]) | GI50 (BT474 cells; [3]) | EC50 (HER2VC (G776delinsVC))
